Reference: patent US6221865A, “Inhibitors of protein isoprenyl transferases” (priority 1998, dated 2001)
Where a name gives a salt, the structure may show the parent alone. Read-outs that look alike come from different tables or passages of the source.

Target: T1, protein farnesyltransferase (Rattus norvegicus, UniProt Q02293+Q04631)
T1 construct: The enzyme is purified according to Reiss, Y., et al., Cell, 62: 81-88 (1990), utilizing steps one through three; from tissue; host or cells: rat brain
T1 sequence (Q02293 whole entry, one chain of several): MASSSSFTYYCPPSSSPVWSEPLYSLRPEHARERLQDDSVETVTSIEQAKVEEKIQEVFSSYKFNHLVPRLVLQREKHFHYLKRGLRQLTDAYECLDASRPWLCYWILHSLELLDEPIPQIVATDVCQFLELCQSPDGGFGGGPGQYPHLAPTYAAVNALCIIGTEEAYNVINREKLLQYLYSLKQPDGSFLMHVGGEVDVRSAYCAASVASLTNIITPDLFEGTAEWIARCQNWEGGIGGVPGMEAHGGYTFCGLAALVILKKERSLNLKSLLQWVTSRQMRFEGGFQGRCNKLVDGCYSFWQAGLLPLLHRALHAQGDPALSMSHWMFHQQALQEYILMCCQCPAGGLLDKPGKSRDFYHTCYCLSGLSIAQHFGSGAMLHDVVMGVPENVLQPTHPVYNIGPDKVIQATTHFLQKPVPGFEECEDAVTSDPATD
Assay: Inhibition of farnesyltransferase (scintillation proximity assay, rat brain enzyme, biotin-K Ras B fragment substrate)
Format: biochemical
Settings: for inhibition at 1 µM: read-out: % inhibition of farnesyltransferase at 1 × 10^-6 M; for inhibition at 1 µM / % inhibition of farnesyltransferase at 1 × 10^-6 M: 1 × 10^-6 M (Table 2); for % inhibition of farnesyltransferase at 1 × 10^-8 M: 1 × 10^-8 M (Table 4); for inhibition at 0.01 µM: read-out: % inhibition at 0.01 μM (**), Table 6, ** = 0.01 μM (footnote), title prints 0.01 mM; for % inhibition of farnesyltransferase at 1 × 10^-5 M: 1 × 10^-5 M (Table 1)
Procedure, shortened: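 Enzyme from rat brain, partly purified (steps one to three), assayed by SPA kit using 0.1 mM final biotin-K Ras B peptide as prenyl acceptor rather than biotin-lamin. Activity given as percent inhibition.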

[1] = read-out: % inhibition at 0.1 μM (*), Table 6, * = 0.1 μM (footnote), title prints 0.1 mM
[2] = read-out: % inhibition of farnesyltransferase at 1 × 10^-7 M, 1 × 10^-7 M (Table 3)

`CSCC[C@H](NC(=O)c1ccc(CN2C(=O)OC[C@@H]2CC2CCCCC2)cc1-c1ccccc1C)C(=O)O` [Example 349, [4-(5-cyclohexylmethyloxazolid-2-on-1-ylmethyl)-2-(2-methylphenyl)benzoyl]methionine] was tested, and the inhibition at 1 µM was 99%.
For `CSCC[C@H](NC(=O)c1ccc(CSC2CCCCC2)cc1-c1ccccc1C)C(=O)[O-].[Li+]` [Example 550], the “% inhibition of farnesyltransferase at 1 × 10^-6 M” value (“% inhibition … at 1 × 10^-6 M” for short) was 96%.
In the case of `CCCCS(=O)(=O)N(CCCc1ccccc1)Cc1ccc(C(=O)N[C@@H](CCSC)C(=O)O)c(-c2ccccc2C)c1` [Example 927], the “% inhibition of farnesyltransferase at 1 × 10^-8 M” value (“% inhibition … at 1 × 10^-8 M” below) is reported as 74%.
Compound `CSCC[C@H](NC(=O)c1ccc(CN(C(C)C)C(C)(C)CC2CCCCC2)cc1-c1ccccc1C)C(=O)O` [Example 318] has an inhibition at 1 µM of 98%.
For `CSCC[C@H](NC(=O)c1ccc(CN(Cc2ccccc2)c2cccc(C(C)=O)c2)cc1-c1ccccc1C)C(=O)O` [Example 845], the “% inhibition … at 1 × 10^-8 M” value was 85%.
`CSCC[C@H](NC(=O)c1ccc(COCc2ccc(-c3ccc(F)cc3)o2)cc1-c1ccc(F)cc1Cl)C(=O)[O-].[Li+]` [Example 869] was tested, and the “% inhibition of farnesyltransferase at 1 × 10^-7 M” value (“% inhibition … at 1 × 10^-7 M” for short) (1 × 10^-7 M (Table 3)) was 92%.
`CSCC[C@H](NC(=O)c1ccc(/C=C/c2cnc(Oc3ccccc3)cn2)cc1-c1ccccc1C)C(=O)O` [Example 812, lithium salt] gave an inhibition at 1 µM of 94%.
Compound `Cc1ccccc1-c1cc(CN(C2CC2)C2(CC3CCCCC3)CCC2)ccc1C(=O)N[C@@H](CCS(C)(=O)=O)C(=O)O` [Example 334] has an inhibition at 1 µM of 93%.
For `Cc1ccccc1-c1cc(CCc2cccc(Oc3ccccc3)c2)ccc1C(=O)N[C@@H](CC[S+](C)[O-])C(=O)O` (stereo partly shown) [Example 460, N-[4-(2-(3-phenoxyphenyl)ethyl)-2-(2-methylphenyl)benzoyl]-2-amino-4-methylsulfinylbutanoic acid lithium salt], the inhibition at 1 µM was 88%.
In the case of `CSCC[C@H](NC(=O)c1ccc(OC/C=C/c2ccccc2)cc1-c1ccccc1C)C(=O)O` [Example 560], the “% inhibition … at 1 × 10^-6 M” value is reported as 91%.
“N-[4-(4-phenylcyclohexylidenyl)-2-(2-methylphenyl)benzoyl]methionine lithium salt [Example 789]” was tested, and the “% inhibition … at 1 × 10^-6 M” value was 86%.
For `CSCC[C@H](NC(=O)c1ccc(CN2CC(F)(F)C[C@H]2COCC2CCCCC2)cc1-c1ccccc1C)C(=O)O` [Example 1117, N-[4-(2(S)-cyclohexylmethyloxymethyl-4,4-difluoropyrrolidin-1-ylmethyl)-2-(2-methylphenyl)benzoyl]methionine], the inhibition at 0.1 µM [1] was 92%.
With “N-[4-(2-fluoren-4-ylethyl)-2-(2-methylphenyl)benzoyl]methionine lithium salt [Example 464]” the “% inhibition … at 1 × 10^-7 M” value (1 × 10^-7 M (Table 3)) was 86%.
With `COc1cccc(CNCc2ccc(C(=O)N[C@@H](CCSC)C(=O)O)c(-c3ccccc3)c2)c1` [Example 652] the “% inhibition … at 1 × 10^-6 M” value was 41%.
`CSCC[C@H](NC(=O)c1ccc(CCc2ccc(Oc3cccc(Cl)c3)cc2)cc1-c1ccccc1C)C(=O)O` [Example 859, N-[4-(2-(4-(3-chlorophenoxy)phenyl)ethyl)-2-(2-methylphenyl)benzoyl]methionine] was tested, and the inhibition at 0.1 µM [2] was 86%.
With `CSCC[C@H](NC(=O)c1ccc(COCc2cnc(-c3cccc(Cl)c3)o2)cc1-c1ccccc1C)C(=O)[O-].[Li+]` [Example 893] the “% inhibition … at 1 × 10^-7 M” value (1 × 10^-7 M (Table 3)) was 87%.
`CSCC[C@H](NC(=O)c1ccc(Cc2nnn(CC3CCCCC3)n2)cc1-c1ccccc1C)C(=O)O` [Example 1102, N-[4-(2cyclohexylmethyltetrazol-5-ylmethyl)-2-(2-methylphenyl)benzoyl]methionine] gave an inhibition at 0.01 µM of 84%.
`COC1CC(COCc2ccccc2)N(Cc2ccc(C(=O)N[C@@H](CCSC)C(=O)O)c(-c3ccccc3C)c2)C1` (stereo partly shown) [Example 1121, N-[4-(2-benzyloxymethyl-4-methoxypyrrolidin-1-ylmethyl)-2-(2-methylphenyl)benzoyl]methionine] showed an inhibition at 0.1 µM [1] of 72%.
For `CSCC[C@H](NC(=O)c1ccc(OCCC23CC4CC(CC(C4)C2)C3)cc1-c1ccccc1C)C(=O)O` [Example 553], the “% inhibition … at 1 × 10^-6 M” value was 92%.
In the case of `CSCC[C@H](NC(=O)c1ccc(CCc2ccccc2Cc2ccccc2)cc1-c1ccccc1C)C(=O)O` [Example 458, lithium salt], the inhibition at 0.1 µM [2] is reported as 87%.
In the case of `CSCC[C@H](NC(=O)c1ccc(CO[C@H](CSc2ccccc2)CC2CCCCC2)cc1-c1ccccc1C)C(=O)O` [Example 884], the “% inhibition … at 1 × 10^-8 M” value is reported as 94%.
`Cc1ccccc1-c1cc(CN(C(C)C)C2(Cc3ccccc3)CC2)ccc1C(=O)N[C@@H](CCS(C)(=O)=O)C(=O)O` [Example 327] gave an inhibition at 1 µM of 97%.
With `CSCC[C@H](NC(=O)c1ccc(CSC2=NCCS2)cc1-c1ccccc1C)C(=O)O` [Example 730] the “% inhibition … at 1 × 10^-7 M” value (1 × 10^-7 M (Table 3)) was 96%.
With `CSCC[C@H](NC(=O)c1ccc(COCc2cnc(-c3cccc(F)c3)s2)cc1-c1ccccc1C)C(=O)[O-].[Li+]` [Example 898] the “% inhibition … at 1 × 10^-8 M” value was 82%.
With `CSCC[C@H](NC(=O)c1ccc(CN(C(C)C)C(C)(C)Cc2ccccc2)cc1-c1ccccc1C)C(=O)O` [Example 317] the inhibition at 1 µM was 54%.
For `CSCC[C@H](NC(=O)c1ccc(CN(C)CC(O)CO)cc1-c1ccccc1C)C(=O)O` (stereo partly shown) [Example 719], the “% inhibition … at 1 × 10^-6 M” value was 90%.
For `COc1ccccc1COCc1ccc(C(=O)N[C@@H](CCSC)C(=O)[O-])c(-c2ccccc2C)c1.[Li+]` [Example 931], the “% inhibition … at 1 × 10^-7 M” value (1 × 10^-7 M (Table 3)) was 98%.
With `CSCC[C@H](NC(=O)c1ccc(CCCC(=O)c2ccc3ccccc3c2)cc1-c1ccccc1C)C(=O)O` [Example 473, N-[4-(4-naphth-2-ylbut-4-on-1-yl)-2-(2-methylphenyl)benzoyl]methionine lithium salt] the inhibition at 1 µM was 96%.
`CSCC[C@H](NC(=O)c1ccc(CN2OCCC2COC2CCCCC2)cc1-c1ccccc1C)C(=O)O` (stereo partly shown) [Example 1130, N-[4-(3-cyclohexyloxymethylisoxazolidin-2-ylmethyl)-2-(2-methylphenyl)benzoyl]methionine] was tested, and the inhibition at 0.01 µM was 88%.
`CSCC[C@H](NC(=O)c1ccc(CSc2ccc3ccccc3c2)cc1-c1ccccc1C)C(=O)O` [Example 551] was tested, and the “% inhibition … at 1 × 10^-7 M” value (1 × 10^-7 M (Table 3)) was 93%.
`CSCC[C@H](NC(=O)c1ccc(-c2cccc(-c3ccccc3)c2)cc1-c1ccccc1C)C(=O)O` [Example 787, N-[4-(3-phenylphenyl)-2-(2-methylphenyl)benzoyl]methionine lithium salt] showed an inhibition at 1 µM of 70%.
In the case of `CSCC[C@H](NC(=O)c1ccc(COCc2ccccc2)cc1-c1ccccc1C)C(=O)NS(=O)(=O)c1ccccc1` [Example 580], the “% inhibition … at 1 × 10^-7 M” value (1 × 10^-7 M (Table 3)) is reported as 90%.
With `CSCC[C@H](NC(=O)c1ccc(CN(Cc2ccc(Cl)cc2)c2ccccc2)cc1-c1ccccc1C)C(=O)O` [Example 781] the “% inhibition … at 1 × 10^-7 M” value (1 × 10^-7 M (Table 3)) was 91%.
`CCCCN(CCCC)C(=O)CN(C)Cc1ccc(C(=O)N[C@@H](CCSC)C(=O)O)c(-c2ccccc2C)c1` [Example 913] was tested, and the “% inhibition … at 1 × 10^-7 M” value (1 × 10^-7 M (Table 3)) was 89%.
With `CSCC[C@H](NC(=O)c1ccc(CN(CCc2ccccc2)C(C)C)cc1-c1ccccc1C)C(=O)O` [Example 835] the “% inhibition … at 1 × 10^-6 M” value was 96%.
For `CSCC[C@H](NC(=O)c1ccc(CNCCSC(C)(C)C)cc1-c1ccccc1)C(=O)O` [Example 627], the “% inhibition … at 1 × 10^-6 M” value was 85%.
For `CSCC[C@H](NC(=O)c1ccc(CNc2ccc3c(c2)Cc2ccccc2-3)cc1-c1ccccc1)C(=O)O` [Example 706], the “% inhibition of farnesyltransferase at 1 × 10^-5 M” value was 53%.
`CSCC[C@H](NC(=O)c1ccc(COC2CCN(C(=O)OC(C)(C)C)CC2)cc1-c1ccccc1C)C(=O)[O-].[Li+]` [Example 808] was tested, and the “% inhibition … at 1 × 10^-6 M” value was 88%.
`CSCC[C@H](NC(=O)c1ccc(CN2CCSC[C@H]2COCC2CCCCC2)cc1-c1ccccc1C)C(=O)O` [Example 1111, N-[4-(3(R)-cyclohexylmethoxymethylthiomorpholin-4-ylmethyl)-2-(2-methylphenyl)benzoyl]methionine] was tested, and the inhibition at 0.01 µM was 63%.
For `CSCC[C@H](NC(=O)c1ccc(CN(CCC2CCCCC2)S(C)(=O)=O)cc1-c1ccccc1C)C(=O)O` [Example 611], the “% inhibition … at 1 × 10^-7 M” value (1 × 10^-7 M (Table 3)) was 95%.
With `CSCC[C@H](NC(=O)c1ccc(COCc2cccs2)cc1-c1ccccc1C)C(=O)[O-].[Li+]` [Example 273] the “% inhibition … at 1 × 10^-6 M” value was 96%.
In the case of `CSCC[C@H](NC(=O)c1ccc(CN(Cc2ccccc2)c2ccccc2Cl)cc1-c1ccccc1C)C(=O)O` [Example 846], the “% inhibition … at 1 × 10^-6 M” value is reported as 85%.
`CSCC[C@H](NC(=O)c1ccc(CNc2cccc(C)c2)cc1-c1ccccc1)C(=O)O` [Example 674] was tested, and the “% inhibition of farnesyltransferase at 1 × 10^-5 M” value was 40%.
For `COc1cccc(-c2ccc(COCc3ccc(C(=O)N[C@@H](CCSC)C(=O)[O-])c(-c4ccccc4C)c3)o2)c1.[Li+]` [Example 442], the “% inhibition … at 1 × 10^-7 M” value (1 × 10^-7 M (Table 3)) was 88%.
In the case of `CSCC[C@H](NC(=O)c1ccc(COCc2ccc(-c3ccccc3C(F)(F)F)o2)cc1-c1ccccc1C)C(=O)[O-].[Li+]` [Example 438], the “% inhibition … at 1 × 10^-7 M” value (1 × 10^-7 M (Table 3)) is reported as 90%.
For `CSCC[C@H](NC(=O)c1ccc(CN(C2CC2)C2(CC3CCCCC3)CCC2)cc1-c1ccccc1C)C(=O)O` [Example 330], the inhibition at 1 µM was 98%.
